# Like-named read-outs stand apart in the source and are kept apart here.
# How the values were obtained:
# [1] = Metformin drug-drug interaction study: urine pharmacokinetics of metformin; type: in vivo, human
# [2] = Metformin drug-drug interaction study: safety (TEAEs); settings: for Any TEAEs leading to death, number of events / Any TEAEs leading to death, subjects: Treatment A = 1000 mg metformin alone (N = 26), Treatment B = 1000 mg metformin + 10 mg Compound 1 (N = 27)
# Description: Safety was assessed throughout the study based on adverse events (AEs), physical examinations, weight measurements, electrocardiograms (ECGs), vital signs assessments (seated and orthostatic), and clinical laboratory evaluations.
# The following safety assessments were performed: • AEs and SAEs; • Clinical laboratory test assessments; • Vital signs including heart rate, blood pressure (BP) (including orthostatic BP when indicated), respiration rate, and temperature; • 12-lead ECGs; • Physical examinations; and • Height, weight, and BMI.
# Safety analyses were performed throughout the study based on the Safety Population. Safety was evaluated through assessments of AEs, physical examinations, ECGs, weight measurements, vital signs assessments (seated and orthostatic), and clinical laboratory evaluations.
# A TEAE was defined as an AE that emerged, having been absent prior to the study, or an AE that worsened in severity after the first dose of any drug in this study. TEAEs were summarized by MedDRA SOC and PT for each treatment and overall. The number and percentage of subjects experiencing TEAEs and the number of TEAEs were tabulated. Subjects reporting more than 1 AE for a given MedDRA PT were counted only once for that term using the most severe incident. Subjects reporting more than 1 type of event within a SOC were counted only once for that SOC. The Safety Population was used for all the safety analyses.
# aldosterone synthase = aldosterone synthase (Homo sapiens, UniProt P19099); settings: cited from earlier work
# [3] = Treatment B: single 1000 mg metformin + 10 mg Compound 1
# clinical = settings: human, in vivo, 1000 mg; for AUC(0-inf): Metformin plasma AUC0-inf; for AUC(0-t): Metformin plasma AUC0-t
# [4] = Treatment B: 10 mg Compound 1 with single 1000 mg metformin
# [5] = Treatment A: single 1000 mg metformin alone
# [6] = Treatment B: single 1000 mg metformin + 10 mg Compound 1
# Chain of aldosterone synthase (P19099 25-503, species assumed): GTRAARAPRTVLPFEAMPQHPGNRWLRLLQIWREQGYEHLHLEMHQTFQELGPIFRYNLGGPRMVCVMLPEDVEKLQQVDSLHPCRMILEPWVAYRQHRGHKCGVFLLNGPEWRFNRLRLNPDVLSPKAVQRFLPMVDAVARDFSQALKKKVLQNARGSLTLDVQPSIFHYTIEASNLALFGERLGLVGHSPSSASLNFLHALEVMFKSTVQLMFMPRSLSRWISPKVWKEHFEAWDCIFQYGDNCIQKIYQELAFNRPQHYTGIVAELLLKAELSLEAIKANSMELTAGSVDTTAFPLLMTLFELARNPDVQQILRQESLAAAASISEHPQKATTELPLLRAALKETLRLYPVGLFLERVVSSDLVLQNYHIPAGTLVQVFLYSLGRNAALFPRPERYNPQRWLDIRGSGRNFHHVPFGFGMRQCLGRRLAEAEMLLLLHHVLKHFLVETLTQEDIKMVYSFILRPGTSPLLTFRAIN
smiles,measurement,setting,value
"CCC(=O)NC1CCCc2c(-c3ccc4c(c3)CCC(=O)N4C)cncc21 (stereo not drawn) [Compound 1, N-(4-(1-methyl-2-oxo-1,2,3,4-tetrahydroquinolin-6-yl)-5,6,7,8-tetrahydroisoquinolin-8-yl)propionamide]","Compound 1 plasma AUC%extrap, Mean (SD)",[4],9.9 (5.2) %
same,"Compound 1 plasma λz, Mean (SD)",[4],0.033 (0.008) 1/h
same,Tmax,"human, plasma",1.3 h
same,AUC(0-t),"human, plasma, Compound 1 plasma AUC0-24, Mean (SD), Treatment B: 10 mg Compound 1 with single 1000 mg metformin",1660 ng·h/mL
same,AUC(0-t),"human, plasma, Compound 1 plasma AUC0-72, Mean (SD), Treatment B: 10 mg Compound 1 with single 1000 mg metformin",2870 ng·h/mL
same,effect on metformin renal clearance,[1]; 10 mg Compound 1 2 hours prior to metformin dosing,did not result in a reduction
same,"Any TEAEs leading to death, number of events",[2],0 e
same,"Any TEAEs leading to death, subjects",[2],0 (0.0) n (%)
N#Cc1ccc([C@H]2CCc3cncn32)c(F)c1 [LCI1699],specificity for aldosterone synthase,"aldosterone synthase; clinical trials by Novartis, discontinued",lack of specificity for aldosterone synthase
same,ACTH associated with aldosterone reductions,aldosterone synthase; previously observed,corresponding increase in ACTH
same,increase in predose 11-deoxycorticosterone levels,aldosterone synthase; previously observed,up to 10 fold
CN(C)C(=N)N=C(N)N [metformin],"Metformin plasma AUC0-t, Geom LS Mean",[3],10683.45 ng·h/mL
same,metformin dose excreted in the urine,"[1]; 1000 mg metformin, presence and absence of Compound 1",approximately 30%
same,"Metformin urine Fe0-3, Mean (CV %)",[1]; [5],11.76 (33.0) %
same,"Metformin urine Fe0-6, Mean (CV %)",[1]; [5],21.50 (27.2) %
same,"Metformin urine Fe0-9, Mean (CV %)",[1]; [5],25.40 (28.1) %
same,"Metformin urine Fe0-12, Mean (CV %)",[1]; [5],27.42 (26.2) %
same,"Metformin urine Fe0-18, Mean (CV %)",[1]; [5],29.11 (25.6) %
same,"Metformin urine Fe0-24, Mean (CV %)",[1]; [5],29.82 (25.1) %
same,"Metformin urine Fe0-30, Mean (CV %)",[1]; [5],30.21 (24.9) %
same,"Metformin urine Fe0-36, Mean (CV %)",[1]; [5],30.50 (24.7) %
same,"Metformin urine Fe0-48, Mean (CV %)",[1]; [5],30.90 (24.5) %
same,"Metformin urine Fe0-72, Mean (CV %)",[1]; [5],31.23 (24.2) %
same,"Metformin urine Fe0-3, Mean (CV %)",[1]; [6],10.47 (36.6) %
same,"Metformin urine Fe0-6, Mean (CV %)",[1]; [6],19.06 (32.4) %
same,"Metformin urine Fe0-9, Mean (CV %)",[1]; [6],23.11 (33.8) %
same,"Metformin urine Fe0-12, Mean (CV %)",[1]; [6],25.07 (32.5) %
same,"Metformin urine Fe0-18, Mean (CV %)",[1]; [6],26.52 (31.3) %
same,"Metformin urine Fe0-24, Mean (CV %)",[1]; [6],27.21 (30.6) %
same,"Metformin urine Fe0-30, Mean (CV %)",[1]; [6],27.62 (30.3) %
same,"Metformin urine Fe0-36, Mean (CV %)",[1]; [6],27.87 (30.0) %
same,"Metformin urine Fe0-48, Mean (CV %)",[1]; [6],28.25 (29.4) %
same,"Metformin urine Fe0-72, Mean (CV %)",[1]; [6],28.72 (28.9) %
same,AUC(0-inf),clinical; Geom LS Mean,11100 ng·h/mL
same,AUC(0-inf),clinical; Mean (SD),11200 ng·h/mL
same,AUC(0-t),clinical; Geom LS Mean,11000 ng·h/mL
same,AUC(0-t),clinical; Mean (SD),11200 ng·h/mL
same,"Any TEAEs leading to death, number of events",[2],0 e
same,"Any TEAEs leading to death, subjects",[2],0 (0.0) n (%)
same,subjects experiencing diarrhoea,"[2]; human, in vivo",3 (11.5%)
same,subjects experiencing nausea,"[2]; human, in vivo",1 (3.7%)
same,subjects experiencing upper abdominal pain,"[2]; human, in vivo",One (3.7%)

# Reference: US20240277698A1, “METHODS OF USING ALDOSTERONE SYNTHASE INHIBITORS” (CINCOR PHARMA, INC., priority 2021, published 2024)
